# Measurements: US20260355150A1 (Sumitomo Pharma America, Inc., priority 2022, published 2026)
# Columns and labels:
# [1] = Rat learned helplessness model (active avoidance); conditions: helpless rats; for escape failures (Mean ± SEM) / inter-trial interval (ITI) crossings (Mean ± SEM): 32 mg/kg, po bid
# Protocol: In this model, rats are first exposed to inescapable foot shock to induce a helpless state which is then expressed by a subsequent failure to learn to avoid escapable foot shocks (active avoidance).
# Helplessness was induced on Day 1 in 5 of the groups by exposing animals to inescapable foot shocks delivered through an electrified stainless steel grid floor every 15 seconds for 1 h. […] Treatment continued on days 2-5 with all subjects receiving test agent or vehicle twice daily (AM and PM). Active avoidance was tested 60 min after the morning dose on Days 3, 4 and 5. All rats were tested in a 2-compartment active avoidance chamber where delivery of foot shock was signaled by a light cue. The test session began with 5 min of free exploration after which 30 stimulus-shock trials were delivered during a 15 min period. Each trial lasted 30 seconds with an initial 24 second rest period, followed by a 6 second light cue presentation with foot shock delivered during the last 3 seconds. […] Failure to avoid full delivery of the foot shock (i.e., failing to cross during 3 second shock presentation) was considered an escape failure. Crossings to the opposite compartment of the shuttle box during the 24 second rest period were recorded as inter-trial interval (ITI) crossings. Escape failures and ITI crossings were analyzed by two way repeated measures ANOVA with treatment as a main factor and test session (i.e., day) as the repeated measure.
# [2] = Rat forced swim test, second study (one administration 24 h prior to testing); conditions: 10 mg/kg, ip, positive control, of 60 observations in 5 min, p < 0.05 vs vehicle (footnote a)
# Protocol: In both procedures, rats were pre-exposed to a 15 min swim session (day 0) prior to the 5 min FST session which was conducted 24 h later (day 1).
# In the second study, adult, male Sprague-Dawley rats (190-234 g, n=10 per group) were dosed on only one occasion immediately after the pre-swim i.e., 24 h prior to testing. […] Behavior was quantified during the 5 min test session using a time sampling technique where the actual behavior observed, i.e., immobility, climbing or swimming, was recorded every 5 seconds for a total of 60 observations. Results were analyzed by one way ANOVA followed by Dunnett's post hoc comparisons.
# [3] = literature (Ardalan 2017; Cryan 2005; Koike 2014); acute treatment; cited from earlier work
SMILES,"escape failures, significance ([1]; 32 mg/kg po bid)",escape failures (Mean ± SEM) ([1]; Day 3),inter-trial interval (ITI) crossings (Mean ± SEM) ([1]; Day 3),inter-trial interval (ITI) crossings (Mean ± SEM) ([1]; Day 4),"escape failures (Mean ± SEM) ([1]; Day 4, p < 0.05 vs helpless/vehicle (footnote a))",inter-trial interval (ITI) crossings (Mean ± SEM) ([1]; Day 5),"escape failures (Mean ± SEM) ([1]; Day 5, p < 0.05 vs helpless/vehicle (footnote a))",Immobility frequency (Mean ± SEM) [2],"antidepressant-like effects in this dosing protocol (rat FST, dosed 24 h prior to testing) [3]"
CN(C)CCCN1c2ccccc2CCc2ccccc21 [Imipramine],significant reduction in escape failures,3 ± 1,17 ± 2,12 ± 2,3 ± 2^a,15 ± 2,2 ± 1^a,–,–
CNC1(c2ccccc2Cl)CCCCC1=O (stereo not drawn) [Ketamine],–,–,–,–,–,–,–,22.9 ± 3.5^a,antidepressant-like effects
